According to ChEMBL document CHEMBL5126666, “Cladoxanthones A and B, Xanthone-Derived Metabolites with a Spiro[cyclopentane-1,2'-[3,9a]ethanoxanthene]-2,4',9',11'-tetraone Skeleton from a Cladosporium sp” (J Nat Prod, 2022):

Columns and labels:
Type in all cases: functional, cell-based
J82 = assay: Antiproliferative activity against human J82 cells assessed as reduction in cell viability after 24 hrs by MTT assay; conditions: J82, 24 h
4T1 = assay: Antiproliferative activity against mouse 4T1 cells assessed as reduction in cell viability after 24 hrs by MTT assay; conditions: 4T1, 24 h
[1] = Antiproliferative activity against mouse MB49 cells assessed as reduction in cell viability after 24 hrs by MTT assay; conditions: MB49, 24 h
Huh-7 = assay: Antiproliferative activity against human Huh-7 cells assessed as reduction in cell viability after 24 hrs by MTT assay; conditions: Huh-7, 24 h

Structure (SMILES)	IC50 (J82)	IC50 (4T1)	IC50 [1]	IC50 (Huh-7)
C[C@H]1CCC(=O)[C@@]12C[C@]13C(=O)C[C@@]2(C)C(=O)[C@]1(C)Oc1cccc(O)c1C3=O	25 µM	38.7 µM	13.9 µM	24.3 µM
CC1=CC(=O)[C@]2(O)C(=O)c3c(ccc(-c4ccc5c(c4O)C(=O)[C@@]46C[C@@]7(C(=O)CC[C@@H]7C)[C@@](C)(CC4=O)C(=O)[C@]6(C)O5)c3O)O[C@@]2(C)[C@H]1O	24.7 µM	27.5 µM	41.7 µM	46.4 µM
